Structures are written as SMILES. Like-named read-outs stand apart in the source and are kept apart here.

Results on 31 compounds are retold here after US20250026743A1, “HETEROARYL-LINKED ANALOGS AS MGLU5 NEGATIVE ALLOSTERIC MODULATORS AND METHODS OF MAKING AND USING THE SAME” (Vanderbilt University, priority 2021, published 2025).

The target in the assay is T1, hmGlu5 (Homo sapiens, UniProt P41594).
T1 construct: expressed in transfected cells; host or cells: HEK 293A
The assay can be described thus: mGlu5 Ca2+ flux assay in HEK 293A cells (negative allosteric modulation of glutamate EC80 response). The format is cell-based. The note with it: for remaining activity at 30 µM: HEK293-A, read-out: hmGlu5 NAM Emin (%). The gist of the method: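 HEK 293A cells stably expressing rat or human mGlu5, Fluo-4 AM loaded; compound added 2.3 min before glutamate EC20, then EC80; Ca2+ fluorescence peak amplitudes (F/F0) normalised to glutamate max. IC50 from 4-parameter logistic fit, 10-point 1:3 curves, top 30 μM; partial NAMs plateau above 10% Glu Max.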
On the technique in general: A change in cytosolic calcium serves as a functional read-out for many receptors and channels.

Where [1] appears, read: HEK 293A cells, Ca2+ flux, glutamate EC80, >10,000 = decrease without plateau, read-out: hmGlu5 NAM IC50.

T1 sequence (P41594 21-1212): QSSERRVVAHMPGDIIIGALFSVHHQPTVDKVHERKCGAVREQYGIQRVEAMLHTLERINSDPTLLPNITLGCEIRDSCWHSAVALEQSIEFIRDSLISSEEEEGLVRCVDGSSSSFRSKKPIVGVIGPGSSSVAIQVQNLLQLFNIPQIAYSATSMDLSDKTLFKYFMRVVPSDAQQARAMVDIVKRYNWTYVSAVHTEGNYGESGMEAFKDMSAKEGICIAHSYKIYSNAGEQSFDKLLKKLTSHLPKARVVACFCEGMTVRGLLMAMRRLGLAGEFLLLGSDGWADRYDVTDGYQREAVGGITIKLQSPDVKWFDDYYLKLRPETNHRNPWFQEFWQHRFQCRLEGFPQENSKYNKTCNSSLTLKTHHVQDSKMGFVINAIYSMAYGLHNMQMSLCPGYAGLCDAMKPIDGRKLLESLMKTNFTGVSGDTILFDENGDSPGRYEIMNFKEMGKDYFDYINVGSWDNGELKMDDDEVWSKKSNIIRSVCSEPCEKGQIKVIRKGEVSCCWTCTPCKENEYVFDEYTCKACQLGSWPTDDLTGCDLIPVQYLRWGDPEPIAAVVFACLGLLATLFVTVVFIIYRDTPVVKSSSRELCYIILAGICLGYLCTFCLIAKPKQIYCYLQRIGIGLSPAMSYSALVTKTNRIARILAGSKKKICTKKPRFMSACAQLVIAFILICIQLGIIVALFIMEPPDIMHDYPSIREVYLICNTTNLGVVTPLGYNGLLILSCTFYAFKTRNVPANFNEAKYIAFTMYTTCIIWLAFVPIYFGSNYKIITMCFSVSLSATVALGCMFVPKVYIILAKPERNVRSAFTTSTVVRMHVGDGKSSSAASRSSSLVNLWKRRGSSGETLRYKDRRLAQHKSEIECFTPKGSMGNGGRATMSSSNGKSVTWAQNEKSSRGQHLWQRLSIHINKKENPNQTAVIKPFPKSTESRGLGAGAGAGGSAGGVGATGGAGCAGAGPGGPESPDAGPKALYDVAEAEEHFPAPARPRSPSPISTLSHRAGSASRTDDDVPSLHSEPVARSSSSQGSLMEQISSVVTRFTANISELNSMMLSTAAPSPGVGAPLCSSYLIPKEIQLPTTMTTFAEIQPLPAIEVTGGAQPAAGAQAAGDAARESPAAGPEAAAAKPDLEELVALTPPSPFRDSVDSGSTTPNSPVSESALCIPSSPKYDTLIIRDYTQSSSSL

For `COc1cc(-c2cc(-c3nnc(-c4ccc(F)cn4)o3)nc(C)c2F)ccn1` [Compound 108, 2-(5-fluoro-2′-methoxy-6-methyl-[4,4′-bipyridin]-2-yl)-5-(5-fluoropyridin-2-yl)-1,3,4-oxadiazole], the remaining activity at 30 µM (% Glu max at 30 μM) was determined as 1%. Further, under setting [1], the IC50 stood at 94 nM.
The corresponding values for `Cc1nc(-c2noc(-c3cscn3)n2)cc(-c2cncc(F)c2)c1F` [Compound 52, 3-(5,5′-difluoro-6′-methyl-[3,4′-bipyridin]-2′-yl)-5-(thiazol-4-yl)-1,2,4-oxadiazole] are 18% and greater than 10000 nM.
In the same order, the values of `COc1ncc(-c2cc(-c3nnc(-c4ccc(F)cn4)o3)nc(C)c2F)cc1F` [Compound 76, 2-(5,5′-difluoro-6-methoxy-6′-methyl-[3,4′-bipyridin]-2′-yl)-5-(5-fluoropyridin-2-yl)-1,3,4-oxadiazole] are 9% and 5750 nM.
The corresponding values for `Cc1csc(-c2noc(-c3cc(-c4cnccc4C)c(F)c(C)n3)n2)n1` [Compound 105, 5-(5′-fluoro-4,6′-dimethyl-[3,4′-bipyridin]-2′-yl)-3-(4-methylthiazol-2-yl)-1,2,4-oxadiazole] are 13% and greater than 10000 nM.
As to `Cc1ccncc1-c1cc(-c2nc(-c3cccc(F)c3)c[nH]2)nc(C)c1F` [Compound 63, 3′-fluoro-6′-(4-(3-fluorophenyl)-1H-imidazol-2-yl)-2′,4-dimethyl-3,4′-bipyridine], for the setting “% Glu max at 30 μM”, the remaining activity at 30 µM turned out to be 4%. For the same compound, the IC50 under setting [1] was 1090 nM.
In the same order, the values of `Cc1nc(-c2nc(-c3ccc(F)cn3)no2)cc(-c2cncc(F)c2)c1F` [Compound 59, 5-(5,5′-difluoro-6′-methyl-[3,4′-bipyridin]-2′-yl)-3-(5-fluoropyridin-2-yl)-1,2,4-oxadiazole] are 4% and 51 nM.
In the same order, the values of `Cc1ccncc1-c1cc(-c2noc(Cc3ccnn3C)n2)nc(C)c1F` [Compound 56, 3-(5′-fluoro-4,6′-dimethyl-[3,4′-bipyridin]-2′-yl)-5-((1-methyl-1H-pyrazol-5-yl)methyl)-1,2,4-oxadiazole] are 50% and greater than 10000 nM.
The corresponding values for `Cc1nc(-c2noc(-c3ccc(F)cn3)n2)cc(-c2cncc(F)c2)c1F` [Compound 6, 3-(5,5′-difluoro-6′-methyl-[3,4′-bipyridin]-2′-yl)-5-(5-fluoropyridin-2-yl)-1,2,4-oxadiazole] are 2% and 59 nM.
As for `Cc1nc(-c2n[nH]c(-c3ccc(F)cc3)n2)cc(-c2cncc(F)c2)c1F` [Compound 99, 3′,5-difluoro-6′-(5-(4-fluorophenyl)-1H-1,2,4-triazol-3-yl)-2′-methyl-3,4′-bipyridine], the remaining activity at 30 µM (% Glu max at 30 μM) is 2%. In addition, under setting [1], the IC50 is 47 nM.
The corresponding values for `Cc1nc(-c2noc(-c3ccccc3F)n2)cc(-c2cncc(F)c2)c1F` [Compound 47, 3-(5,5′-difluoro-6′-methyl-[3,4′-bipyridin]-2′-yl)-5-(2-fluorophenyl)-1,2,4-oxadiazole] are 34% and 5500 nM.
The corresponding values for `COc1ccnc(-c2nc(-c3cc(-c4cnccc4C)c(F)c(C)n3)no2)c1` [Compound 25, 3-(5′-fluoro-4,6′-dimethyl-[3,4′-bipyridin]-2′-yl)-5-(4-methoxypyridin-2-yl)-1,2,4-oxadiazole] are 12% and 3380 nM.
The corresponding values for `Cc1csc(-c2noc(-c3cc(-c4cncc(F)c4)c(F)c(C)n3)n2)n1` [Compound 104, 5-(5,5′-difluoro-6′-methyl-[3,4′-bipyridin]-2′-yl)-3-(4-methylthiazol-2-yl)-1,2,4-oxadiazole] are 1% and 122 nM.
For the compound `Cc1ccncc1-c1cc(-c2noc(-c3cc(F)ccn3)n2)ncc1F` [Compound 3, 3-(5′-fluoro-4-methyl-[3,4′-bipyridin]-2′-yl)-5-(4-fluoropyridin-2-yl)-1,2,4-oxadiazole], the remaining activity at 30 µM (% Glu max at 30 μM) was 2%. Also, the IC50 under setting [1] was determined as 744 nM.
`Cc1csc(-c2nnc(-c3cc(-c4cncc(F)c4)c(F)c(C)n3)o2)n1` [Compound 83, 2-(5,5′-difluoro-6′-methyl-[3,4′-bipyridin]-2′-yl)-5-(4-methylthiazol-2-yl)-1,3,4-oxadiazole]: the remaining activity at 30 µM amounted to 2%. Besides, the IC50 under setting [1] was determined as 600 nM.
As to `Cc1nc(-c2noc(-c3ccc(F)cc3)n2)cc(-c2cncc(F)c2)c1F` [Compound 48, 3-(5,5′-difluoro-6′-methyl-[3,4′-bipyridin]-2′-yl)-5-(4-fluorophenyl)-1,2,4-oxadiazole], under “% Glu max at 30 μM”, the remaining activity at 30 µM was 3%. Besides, the IC50 under setting [1] was found to be 81 nM.
In the case of `Cc1nc(-c2n[nH]c(-c3ccccc3F)n2)cc(-c2cncc(F)c2)c1F` [Compound 98, 3′,5-difluoro-6′-(5-(2-fluorophenyl)-1H-1,2,4-triazol-3-yl)-2′-methyl-3,4′-bipyridine], under “% Glu max at 30 μM”, the remaining activity at 30 µM was 1%. Under setting [1], the IC50 was 82 nM.
The corresponding values for `[2H]C([2H])([2H])c1cc(-c2cncc(F)c2)cc(-c2noc(-c3ccc(F)cn3)n2)n1` [Compound 35, 3-(5-fluoro-6′-(methyl-d3)-[3,4′-bipyridin]-2′-yl)-5-(5-fluoropyridin-2-yl)-1,2,4-oxadiazole] are 2% and 207 nM.
The corresponding values for `Cc1ccncc1-c1cc(-c2noc(-c3ncccc3F)n2)ncc1F` [Compound 2, 3-(5′-fluoro-4-methyl-[3,4′-bipyridin]-2′-yl)-5-(3-fluoropyridin-2-yl)-1,2,4-oxadiazole] are 25% and 2630 nM.
The corresponding values for `Fc1ccc(-c2nc(-c3cc(-c4cncc(F)c4)cc(C4CCC4)n3)no2)nc1` [Compound 39, 3-(6′-cyclobutyl-5-fluoro-[3,4′-bipyridin]-2′-yl)-5-(5-fluoropyridin-2-yl)-1,2,4-oxadiazole] are 58% and 1910 nM.
`Cc1ccncc1-c1cc(-c2nnc(-c3cccc(F)c3)o2)nc(C)c1F` [Compound 40, 2-(5′-fluoro-4,6′-dimethyl-[3,4′-bipyridin]-2′-yl)-5-(3-fluorophenyl)-1,3,4-oxadiazole]: the remaining activity at 30 µM (% Glu max at 30 μM) was found to be 2%. In addition, under setting [1], the IC50 came out at 705 nM.
Consider `COc1cncc(-c2cc(-c3noc(-c4ccc(F)cn4)n3)nc(C)c2F)c1` [Compound 30, 3-(5′-fluoro-5-methoxy-6′-methyl-[3,4′-bipyridin]-2′-yl)-5-(5-fluoropyridin-2-yl)-1,2,4-oxadiazole], for which the remaining activity at 30 µM (% Glu max at 30 μM) was determined as 3%. In addition, the IC50 under setting [1] worked out at 493 nM.
Turning to `Cc1nc(-c2nnc(-c3ccc(F)cn3)o2)cc(-c2cnsc2)c1F` [Compound 110, 2-(5-fluoro-4-(isothiazol-4-yl)-6-methylpyridin-2-yl)-5-(5-fluoropyridin-2-yl)-1,3,4-oxadiazole], where the note is “% Glu max at 30 μM”, the remaining activity at 30 µM was determined as 2%. Further, under setting [1], the IC50 worked out at 185 nM.
In the same order, the values of `Cc1ccncc1-c1cc(-c2nc(-c3ccc(F)cn3)no2)ncc1F` [Compound 4, 5-(5′-fluoro-4-methyl-[3,4′-bipyridin]-2′-yl)-3-(5-fluoropyridin-2-yl)-1,2,4-oxadiazole] are 1% and 166 nM.
On to `Cc1nc(-c2nc(-c3cscn3)no2)cc(-c2cncc(F)c2)c1F` [Compound 53, 5-(5,5′-difluoro-6′-methyl-[3,4′-bipyridin]-2′-yl)-3-(thiazol-4-yl)-1,2,4-oxadiazole], for which, under “% Glu max at 30 μM”, the remaining activity at 30 µM was determined as 23%. The 50% inhibitory concentration (IC50) under setting [1] stood at 481 nM.
Consider `Cc1ccnc(-c2nc(-c3cc(-c4cnccc4C)c(F)c(C)n3)no2)c1` [Compound 88, 3-(5′-fluoro-4,6′-dimethyl-[3,4′-bipyridin]-2′-yl)-5-(4-methylpyridin-2-yl)-1,2,4-oxadiazole], for which the remaining activity at 30 µM (% Glu max at 30 μM) is 3%. In addition, the IC50 under setting [1] was determined as 245 nM.
Turning to `Cc1nc(-c2noc(-c3cccc(Cl)c3)n2)cc(-c2cncc(F)c2)c1F` [Compound 44, 5-(3-chlorophenyl)-3-(5,5′-difluoro-6′-methyl-[3,4′-bipyridin]-2′-yl)-1,2,4-oxadiazole], the remaining activity at 30 µM stood at 34%. For the same compound, the IC50 under setting [1] was 5800 nM.
As for `Cc1nc(-c2nnc(-c3ccncc3)o2)cc(-c2cncc(F)c2)c1F` [Compound 81, 2-(5,5′-difluoro-6′-methyl-[3,4′-bipyridin]-2′-yl)-5-(pyridin-4-yl)-1,3,4-oxadiazole], the IC50 was greater than 10000 nM and the remaining activity at 30 µM was 55%.
For `Cc1cc(O[C@@H]2CCOC2)cc(-c2noc(-c3ccc(F)cn3)n2)n1` [Compound 112, (R)-5-(5-fluoropyridin-2-yl)-3-(6-methyl-4-((tetrahydrofuran-3-yl)oxy)pyridin-2-yl)-1,2,4-oxadiazole], for the setting “% Glu max at 30 μM”, the remaining activity at 30 µM came to 21%. Further, the IC50 under setting [1] is greater than 10000 nM.
The corresponding values for `COc1c(-c2cnccc2C)cc(-c2nc(-c3ccc(F)cn3)no2)nc1C` [Compound 13, 3-(5-fluoropyridin-2-yl)-5-(5′-methoxy-4,6′-dimethyl-[3,4′-bipyridin]-2′-yl)-1,2,4-oxadiazole] are 2% and 482 nM.
The corresponding values for `Fc1ccc(-c2noc(-c3cc(-c4cncc(F)c4)cc(C(F)F)n3)n2)nc1` [Compound 78, 5-(6′-(difluoromethyl)-5-fluoro-[3,4′-bipyridin]-2′-yl)-3-(5-fluoropyridin-2-yl)-1,2,4-oxadiazole] are 2% and 149 nM.
As for `Cc1nc(-c2noc(C3CCCCC3)n2)cc(-c2cncc(F)c2)c1F` [Compound 36, 5-cyclohexyl-3-(5,5′-difluoro-6′-methyl-[3,4′-bipyridin]-2′-yl)-1,2,4-oxadiazole], the remaining activity at 30 µM (% Glu max at 30 μM) worked out at 51%. Moreover, the IC50 under setting [1] was greater than 10000 nM.

Usually IC50 stands for the concentration at which inhibition is half-maximal.
